Here are results for one compound from ChEMBL document CHEMBL5252622, “Discovery of a brain-sparing GIRK1/4 inhibitor for pharmacological cardioversion of atrial fibrillation” (Bioorg Med Chem Lett, 2023).

A short description of data set [1]: Terminal half-life in iv dosed rat. The note with it: in vivo, read-out: beta t1/2 (converted). The class given is ADME, organism-based.
The nature of data set [2]: Clearance in iv dosed rat. The class given is ADME, organism-based. The note with it: in vivo.
For data set [3], the species on record is Cavia porcellus. The data set can be described thus: Effect on fingolimod-induced shortening of AERP in guinea pig model assessed as restoration of shortened AERP measured at 30 to 60 mins. The class given is functional. The note with it: time 30-60 min.
Data set [4] deals with Cavia porcellus. The data set can be described thus: Effect on AERP in guinea pig assessed as increase in AERP interval at 3 mg/kg, iv measured for 60 mins. Type of data set: functional, organism-based.
Data set [5] relates to Cavia porcellus. Put plainly: Effect on fingolimod-induced shortening of AERP in guinea pig model assessed as prolongation of shortened AERP at 3 mg/kg, iv measured at 20 to 30 mins. Type of data set: functional, organism-based. The conditions noted are these: time 20-30 min.
A short description of data set [6]: Toxicity in langendorff-perfused guinea pig heart assessed as effect on PR interval at 10 uM. The class given is tissue-based, Cavia porcellus.
The nature of data set [7]: Toxicity in langendorff-perfused guinea pig heart assessed as effect on coronary artery perfusion pressure at 10 uM. The class given is tissue-based, Cavia porcellus.
A short description of data set [8]: Toxicity in langendorff-perfused guinea pig heart assessed as effect on QT interval at 10 uM. Type of data set: tissue-based, Cavia porcellus.
A short description of data set [9]: Toxicity in langendorff-perfused guinea pig heart assessed as effect on left ventricular action potential duration at 10 uM. The class given is tissue-based, Cavia porcellus.
Data set [10] in a line: Toxicity in langendorff-perfused guinea pig heart assessed as effect on left atrial action potential duration at 10 uM. Type of data set: tissue-based, Cavia porcellus.
The target in the next data set is T1, Kir3.1/Kir3.4 (Homo sapiens, UniProt P48544+P48549).
T1 sequence (P48549 whole entry): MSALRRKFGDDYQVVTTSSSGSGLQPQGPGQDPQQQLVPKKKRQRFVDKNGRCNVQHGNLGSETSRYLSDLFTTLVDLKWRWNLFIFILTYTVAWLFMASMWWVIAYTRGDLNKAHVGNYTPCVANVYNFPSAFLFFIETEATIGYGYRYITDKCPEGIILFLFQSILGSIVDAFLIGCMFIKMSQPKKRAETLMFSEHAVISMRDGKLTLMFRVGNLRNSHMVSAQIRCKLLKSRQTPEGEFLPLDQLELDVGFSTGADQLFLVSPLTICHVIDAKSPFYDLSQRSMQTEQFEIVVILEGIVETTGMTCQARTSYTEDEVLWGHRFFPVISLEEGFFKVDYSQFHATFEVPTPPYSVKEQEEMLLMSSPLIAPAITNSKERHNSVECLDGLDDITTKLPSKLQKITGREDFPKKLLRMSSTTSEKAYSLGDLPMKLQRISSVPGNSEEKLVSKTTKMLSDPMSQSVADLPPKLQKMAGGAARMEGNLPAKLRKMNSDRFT
T1 sequence (P48544 whole entry): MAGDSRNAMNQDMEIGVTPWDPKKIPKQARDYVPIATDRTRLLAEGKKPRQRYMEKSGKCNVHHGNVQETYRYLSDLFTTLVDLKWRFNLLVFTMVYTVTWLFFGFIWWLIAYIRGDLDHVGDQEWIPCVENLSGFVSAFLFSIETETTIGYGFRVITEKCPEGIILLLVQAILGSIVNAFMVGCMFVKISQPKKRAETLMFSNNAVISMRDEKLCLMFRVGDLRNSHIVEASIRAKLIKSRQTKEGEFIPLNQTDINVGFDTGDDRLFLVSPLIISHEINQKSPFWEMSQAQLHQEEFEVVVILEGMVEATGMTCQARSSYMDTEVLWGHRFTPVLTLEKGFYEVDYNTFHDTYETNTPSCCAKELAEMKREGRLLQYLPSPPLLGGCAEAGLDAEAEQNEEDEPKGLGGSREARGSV
Put plainly: Inhibition of recombinant human GIRK1/4 channel. The class given is protein-complex assay.

Data set [11] has as its target Sodium channel protein type 5 subunit alpha (Homo sapiens, UniProt Q14524). Put plainly: Inhibition of recombinant human Nav1.5. Type of data set: toxicity.
The target in data set [12] is Voltage-dependent L-type calcium channel subunit alpha-1C (Homo sapiens, UniProt Q13936). Put plainly: Inhibition of recombinant human Cav1.2. Type of data set: toxicity.
Chain of Voltage-dependent L-type calcium channel subunit alpha-1C (Q13936 whole entry): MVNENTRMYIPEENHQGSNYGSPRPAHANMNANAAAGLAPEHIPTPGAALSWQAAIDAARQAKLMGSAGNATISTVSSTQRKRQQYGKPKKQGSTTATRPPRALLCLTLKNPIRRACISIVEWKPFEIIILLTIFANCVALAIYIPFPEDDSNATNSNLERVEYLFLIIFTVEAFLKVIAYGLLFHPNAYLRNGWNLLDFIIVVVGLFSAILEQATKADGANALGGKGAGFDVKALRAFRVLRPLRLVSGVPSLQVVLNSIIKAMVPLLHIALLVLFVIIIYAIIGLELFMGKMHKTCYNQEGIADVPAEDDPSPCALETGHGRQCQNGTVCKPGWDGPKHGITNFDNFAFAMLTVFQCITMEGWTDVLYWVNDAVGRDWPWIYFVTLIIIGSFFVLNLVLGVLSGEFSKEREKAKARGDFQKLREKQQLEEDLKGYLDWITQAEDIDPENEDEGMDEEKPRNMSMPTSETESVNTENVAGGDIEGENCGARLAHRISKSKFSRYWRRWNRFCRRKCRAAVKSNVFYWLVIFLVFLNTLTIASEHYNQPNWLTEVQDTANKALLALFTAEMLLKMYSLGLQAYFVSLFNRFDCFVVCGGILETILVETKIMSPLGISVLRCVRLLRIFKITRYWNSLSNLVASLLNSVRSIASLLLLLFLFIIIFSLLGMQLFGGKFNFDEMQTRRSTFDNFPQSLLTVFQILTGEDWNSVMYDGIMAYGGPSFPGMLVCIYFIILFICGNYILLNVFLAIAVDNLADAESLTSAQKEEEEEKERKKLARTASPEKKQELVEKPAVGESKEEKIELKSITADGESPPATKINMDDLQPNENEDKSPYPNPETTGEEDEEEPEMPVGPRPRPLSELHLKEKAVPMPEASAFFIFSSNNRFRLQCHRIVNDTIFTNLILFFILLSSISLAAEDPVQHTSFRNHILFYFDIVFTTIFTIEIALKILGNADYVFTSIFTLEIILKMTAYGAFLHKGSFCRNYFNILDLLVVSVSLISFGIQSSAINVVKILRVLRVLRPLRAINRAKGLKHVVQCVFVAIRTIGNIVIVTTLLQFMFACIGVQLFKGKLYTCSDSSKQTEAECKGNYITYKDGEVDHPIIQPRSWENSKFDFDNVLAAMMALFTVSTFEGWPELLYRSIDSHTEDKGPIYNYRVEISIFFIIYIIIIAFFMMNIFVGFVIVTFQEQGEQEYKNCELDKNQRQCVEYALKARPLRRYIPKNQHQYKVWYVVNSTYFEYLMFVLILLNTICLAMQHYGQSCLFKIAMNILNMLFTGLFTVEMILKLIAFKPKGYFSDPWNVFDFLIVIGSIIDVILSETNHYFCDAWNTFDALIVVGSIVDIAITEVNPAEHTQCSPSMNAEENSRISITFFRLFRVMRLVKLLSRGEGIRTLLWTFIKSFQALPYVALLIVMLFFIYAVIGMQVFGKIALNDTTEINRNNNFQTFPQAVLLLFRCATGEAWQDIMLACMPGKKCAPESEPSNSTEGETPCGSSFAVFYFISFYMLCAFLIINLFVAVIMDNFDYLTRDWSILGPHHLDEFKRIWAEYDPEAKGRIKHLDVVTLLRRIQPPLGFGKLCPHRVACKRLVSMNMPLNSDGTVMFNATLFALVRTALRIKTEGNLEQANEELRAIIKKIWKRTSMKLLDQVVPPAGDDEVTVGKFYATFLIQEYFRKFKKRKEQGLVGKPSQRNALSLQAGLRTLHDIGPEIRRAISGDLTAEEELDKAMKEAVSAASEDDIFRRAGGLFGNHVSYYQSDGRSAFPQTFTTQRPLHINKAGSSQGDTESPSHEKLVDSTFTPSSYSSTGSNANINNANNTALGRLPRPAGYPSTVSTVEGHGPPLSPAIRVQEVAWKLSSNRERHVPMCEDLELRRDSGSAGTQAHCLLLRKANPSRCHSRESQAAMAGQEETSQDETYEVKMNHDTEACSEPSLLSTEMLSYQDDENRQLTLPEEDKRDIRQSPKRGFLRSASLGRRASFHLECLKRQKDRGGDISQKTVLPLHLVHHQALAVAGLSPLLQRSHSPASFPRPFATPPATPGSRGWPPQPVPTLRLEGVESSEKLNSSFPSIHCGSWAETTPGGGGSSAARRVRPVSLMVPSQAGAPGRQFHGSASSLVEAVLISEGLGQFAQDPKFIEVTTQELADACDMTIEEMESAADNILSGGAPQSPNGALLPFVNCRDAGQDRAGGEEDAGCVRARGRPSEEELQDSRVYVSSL
For data set [13], the target named is T2, Potassium voltage-gated channel subfamily KQT member 1 (Homo sapiens, UniProt P51787).
T2 sequence (P51787 whole entry): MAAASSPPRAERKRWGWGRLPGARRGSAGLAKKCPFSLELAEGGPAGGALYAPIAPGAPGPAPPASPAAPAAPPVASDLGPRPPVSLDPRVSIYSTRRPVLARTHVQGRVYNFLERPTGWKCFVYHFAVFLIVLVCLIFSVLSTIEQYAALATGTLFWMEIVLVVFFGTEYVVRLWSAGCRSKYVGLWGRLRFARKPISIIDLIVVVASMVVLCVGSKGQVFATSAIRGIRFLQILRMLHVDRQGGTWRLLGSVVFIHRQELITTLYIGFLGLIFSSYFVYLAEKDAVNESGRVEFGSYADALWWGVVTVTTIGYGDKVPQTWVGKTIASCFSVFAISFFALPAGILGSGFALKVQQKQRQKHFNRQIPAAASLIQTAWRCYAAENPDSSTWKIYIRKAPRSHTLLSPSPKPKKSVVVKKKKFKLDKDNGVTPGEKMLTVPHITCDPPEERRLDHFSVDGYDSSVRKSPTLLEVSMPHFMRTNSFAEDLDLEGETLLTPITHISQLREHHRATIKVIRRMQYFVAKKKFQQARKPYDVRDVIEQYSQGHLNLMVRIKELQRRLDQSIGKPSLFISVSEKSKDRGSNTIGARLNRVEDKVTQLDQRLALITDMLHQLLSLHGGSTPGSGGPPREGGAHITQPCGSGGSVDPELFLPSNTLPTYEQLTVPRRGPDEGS
Put plainly: Inhibition of recombinant human KCNQ1. The class given is toxicity.

The target of data set [14] is Voltage-gated inwardly rectifying potassium channel KCNH2 (Homo sapiens, UniProt Q12809). The data set can be described thus: Inhibition of recombinant hERG in the presence of dofetilide by competitive binding assay. The class given is toxicity.
Chain of Voltage-gated inwardly rectifying potassium channel KCNH2 (Q12809 whole entry): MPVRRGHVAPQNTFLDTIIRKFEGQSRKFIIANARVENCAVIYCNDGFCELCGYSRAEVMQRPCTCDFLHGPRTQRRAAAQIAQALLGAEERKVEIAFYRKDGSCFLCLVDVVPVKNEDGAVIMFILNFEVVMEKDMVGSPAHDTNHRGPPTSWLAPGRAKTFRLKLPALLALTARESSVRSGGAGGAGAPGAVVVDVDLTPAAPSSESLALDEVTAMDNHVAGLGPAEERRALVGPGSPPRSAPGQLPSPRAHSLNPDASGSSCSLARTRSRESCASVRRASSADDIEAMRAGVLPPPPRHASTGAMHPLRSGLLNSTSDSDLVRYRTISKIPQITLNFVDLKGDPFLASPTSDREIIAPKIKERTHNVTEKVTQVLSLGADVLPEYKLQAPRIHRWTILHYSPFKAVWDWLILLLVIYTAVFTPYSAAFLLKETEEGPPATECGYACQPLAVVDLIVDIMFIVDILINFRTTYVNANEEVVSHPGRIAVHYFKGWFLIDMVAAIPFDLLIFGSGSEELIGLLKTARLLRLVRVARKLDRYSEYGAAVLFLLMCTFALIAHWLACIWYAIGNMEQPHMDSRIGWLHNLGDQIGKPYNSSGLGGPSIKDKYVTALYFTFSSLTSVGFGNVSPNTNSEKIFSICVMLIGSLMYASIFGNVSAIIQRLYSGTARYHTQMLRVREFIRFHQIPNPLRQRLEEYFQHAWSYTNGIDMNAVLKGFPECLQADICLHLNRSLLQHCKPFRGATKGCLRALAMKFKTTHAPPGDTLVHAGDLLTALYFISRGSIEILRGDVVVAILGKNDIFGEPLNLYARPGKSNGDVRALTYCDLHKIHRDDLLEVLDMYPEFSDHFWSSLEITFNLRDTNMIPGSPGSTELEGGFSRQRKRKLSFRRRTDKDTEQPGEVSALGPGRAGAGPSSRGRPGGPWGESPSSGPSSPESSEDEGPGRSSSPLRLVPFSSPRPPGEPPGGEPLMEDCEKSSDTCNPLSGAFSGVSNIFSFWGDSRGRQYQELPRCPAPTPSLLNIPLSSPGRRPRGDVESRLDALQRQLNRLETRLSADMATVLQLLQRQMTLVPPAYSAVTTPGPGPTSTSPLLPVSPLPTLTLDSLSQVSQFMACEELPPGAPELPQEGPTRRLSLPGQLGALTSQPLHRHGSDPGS
Another data set has as its system MDCK. Put plainly: Substrate activity at p-glycoprotein in MDCK cells overexpressing MDR1 assessed as efflux ratio of permeability from basolateral to apical side over apical to basolateral side. The class given is cell-based. The conditions noted are these: Canis lupus familiaris.
Data set [15] can be described thus: Apparent permeability across apical to basolateral side in MDCK cells. The class given is ADME, cell-based, Canis lupus familiaris. The note with it: dog.
Data set [16] can be described thus: Equilibrium solubility of the compound at pH 7.4. Type of data set: physicochemical. The note with it: buffer.
Data set [17] is described as follows: Brain to plasma ratio in iv dosed rat measured after 30 mins. Type of data set: ADME, organism-based. The note with it: read-out: BPR.
Another data set concerns the target T3, Kir3.1/Kir3.2 (Homo sapiens, UniProt P48051+P48549).
T3 sequence (P48549 whole entry): T1 sequence (P48549 whole entry)
T3 sequence (P48051 whole entry): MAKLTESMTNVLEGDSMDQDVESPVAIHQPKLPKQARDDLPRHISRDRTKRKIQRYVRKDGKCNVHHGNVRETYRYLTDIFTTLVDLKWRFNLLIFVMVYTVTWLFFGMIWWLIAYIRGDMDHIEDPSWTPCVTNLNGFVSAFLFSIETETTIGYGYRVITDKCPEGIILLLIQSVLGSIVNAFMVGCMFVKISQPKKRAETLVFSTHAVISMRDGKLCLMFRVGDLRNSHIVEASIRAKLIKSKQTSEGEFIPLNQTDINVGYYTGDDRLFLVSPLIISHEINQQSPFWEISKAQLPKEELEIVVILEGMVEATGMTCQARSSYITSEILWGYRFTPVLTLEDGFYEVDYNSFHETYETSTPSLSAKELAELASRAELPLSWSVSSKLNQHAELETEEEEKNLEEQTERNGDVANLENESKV
Put plainly: Inhibition of GIRK1/2 (unknown origin) channel. The class given is protein-complex assay.

The nature of data set [18]: Toxicity in rat assessed as NOAEL administered as single dose. The note with it: in vivo.
Data set [19] in a line: Toxicity in rat assessed as NOAEL administered as repeated dose for 6 days. The conditions noted are these: in vivo, time 6 day.
A short description of data set [20]: Cmax in rat administered as single dose. Type of data set: ADME. The conditions noted are these: in vivo.
Data set [21] can be described thus: Cmax in rat administered as repeated dose for 6 days. The class given is ADME. Also on record: time 6 day. The note with it: in vivo.

SMILES strings stand for the structures. ≈ marks a conversion by molar mass, not a printed value. Calls of active or inactive are those of the source. The calls are words filed in the database; no cut-off is given here.

The term clearance denotes the volume of plasma or blood freed of the substance per unit of time. Read a low clearance as inefficient removal. Broadly, the EC90 is the point of the concentration-response curve where the effect stands at 90%. Usually IC50 stands for the concentration needed to halve the response being measured. What is called Papp A→B is the apparent permeability from the apical to the basolateral side of a cell layer. Broadly, the thermodynamic solubility is the concentration in solution at equilibrium with solid. As usually defined, the NOAEL is the highest dose or exposure tested at which no adverse effect was seen. One may read the Cmax as the peak of the concentration-time curve. For `O=c1cc(CO)n(-c2c(Cl)cccc2Cl)c2c(Cl)cnc(OC[C@H](O)CO)c12`, in [1], the half-life was 1.3 h. The compound further registered a clearance in data set [2] of 35 mL/min/kg. In the data set filed under Cavia porcellus [3], the EC90 was 1200 nM. For the same compound, the result with Cavia porcellus [4] and with Cavia porcellus [5] was Active. Also, the Activity result in data set [6], in data set [7], in data set [8], in data set [9] and in data set [10] was “Non-Toxic” in each case. For the same compound, the IC50 on Kir3.1/Kir3.4 is 100 nM; in [11] it was over 50000 nM; in [12], over 50000 nM; in data set [13], over 50000 nM; in data set [14] it was over 50000 nM; on Kir3.1/Kir3.2 it was 100 nM. Further, the Ratio in the data set on MDCK came to 13.5. Further, in data set [15], the Papp A→B is 8.7 ×10⁻⁶ cm/s. The solubility (thermodynamic) in data set [16] was 1000 µM (≈ 446 µg/mL). Further, the Kp at 0.5 h in data set [17] turned out to be 0.02. Also, the NOAEL in data set [18] was found to be 75 mg/kg. Moreover, the NOAEL at 144 h in [19] is 75 mg/kg. The Cmax in [20] and in data set [21] was 193 µM throughout.
